Patent publication US10800815B2, “Kv1.3 potassium channel antagonists” (cgtx-Peptide Development GmbH, priority 2014, dated 2020)
pIC50: −log10 of the molar value. Like-named read-outs stand apart in the source and are kept apart here.

What was measured:
[1] = target: T1, Kv1.3 channels expressed in Sf21 insect cells (Homo sapiens, UniProt P22001); assay: Stability ex vivo in rat blood plasma, read out as IC50 on Kv1.3 (Example 3); assay type: in vitro ADME
T1 construct: expressed in transfected cells; host or cells: Sf21 insect cells, baculovirus infection
Description: The aim was to test the stability of the cgtx-544 peptide in blood plasma of mammals after different incubation times at room temperature (RT) and 37° C. Stability was defined as IC50 value of cgtx-544 after different incubation times at RT and 37° C. Blood plasma was prepared from fresh blood samples from healthy rats or humans. Heparin was added to fresh blood samples to prevent clogging. Plasma preparation was performed by centrifugation for 2 min at 2000×g at RT.
As the cgtx-544 peptide used in these experiments was incompletely folded, a higher IC50 than normal was determined.
To investigate the stability and activity in plasma the peptide was added to freshly prepared human and rat blood plasma at a final concentration of 2 μM. The samples were split into two aliquots and incubated at 37° C. and at room temperature (RT, 20° C.). For the electrophysiological analysis serial dilutions of the samples were prepared.

Kv1.1 = target: T2, Kv1.1 (Homo sapiens, UniProt Q09470); assay: Patch-clamp measurement of Kv1.1 channel inhibition (Example 1); assay type: cell-based; design: dose or concentration left out as unconfirmed
T2 construct: expressed in transfected cells; host or cells: Sf21 insect cells, baculovirus infection
Description: FIGS. 1A-1F Measurement of Kv1.3 (FIGS. 1B and 1E), Kv1.5 (FIGS. 1C and 1F) and Kv1.1 (FIGS. 1A and 1D) channel inhibition by patch-clamp.
(§1) Peptides were dissolved at 1 μg/μl in 20 mM NaPO4 buffer pH 8.2 (1 mg in 1 ml folding buffer) and dialysed against the same buffer 3×1 L, Float-a-Lyzer cut off 500 Da (Spectrapor) at room temperature.
HsTx 1 binding was tested at various concentrations of e.g. 100 pM, 1 nM, 10 nM, 50 nM, 100 nM, 500 nM, and 1 μM—depending on the tested channel. Representative measurements for Kv 1.1, Kv1.3 and Kv1.5 are depicted in FIGS. 1 a), 1 b), and 1 c) respectively.
Cgtx-544 binding was tested at various concentrations of e.g. 1 nM, 10 nM, 50 nM, 100 nM, 1 μM, and 5 μM—depending on the tested channel. Representative measurements for Kv1.1, Kv1.3 and Kv1.5 are depicted in FIGS. 1 d), 1e), and 1) f, respectively.

[2] = target: T3, human Kv1.3 (hKv1.3) channel (Homo sapiens, UniProt P22001); assay: Planar patch clamp (Port-A-Patch) of Kv1.3 potassium currents in Sf 21 cells (Example 1); assay type: cell-based
T3 construct: expressed in transfected cells; host or cells: Sf21 (Spodoptera frugiperda) insect cells, baculovirus infection
Description: Potassium currents were measured by use of Spodoptera frugiperda (Sf 21) cells, which express the human Kv1.3 (hKv1.3) channel. The channel activity is induced upon membrane depolarization to voltages more positive than −40 mV. […] In Sf 21 cells hKv1.3 has an average current amplitude between 250 pA-5 nA at +40 mV.
1-3 days after infection potassium currents were recorded with the planar patch clamp technique, using the Port-A-Patch (Nanion Technologies GmbH). Ionic currents were activated by voltage steps to a depolarizing potential of +40 mV for 200 ms.
Sf 21 cells were cultured in Grace's insect cell medium supplemented with 10% FBS (Fetal Bovine Serum), 2 mM Glutamine, 1×Yeastolate (from 50× stock solution) and 0.1% Pluronic® F68 (BASF) to a cell density of 2-3×10^6 cells/ml.
External buffer: 160 mM NaCl • 4.5 mM KCl • 1 mM MgCl2 • 2 mM CaCl2 • 5 mM D-Glucose monohydrate • 10 mM HEPES/NaoH pH7.4
Internal buffer: 75 mM KCl • 10 mM NaCl • 70 mM K-Fluoride • 2 mM MgCl2 • 10 mM EGTA • 10 mM HEPES/KOH pH 7.2
as §1
HsTx 1 binding was tested at various concentrations of e.g. 100 pM, 1 nM, 10 nM, 50 nM, 100 nM, 500 nM, and 1 μM—depending on the tested channel. […]

hERG = target: T4, hERG (Homo sapiens, UniProt Q12809); assay: Patchliner automated patch clamp of hERG currents in HEK cells, two-point screening (Example 2); assay type: cell-based; details: for Normalized Block of hERG current: steady state at end of application
T4 construct: expressed in transfected cells; host or cells: HEK cells stably expressing hERG
Description: To determine binding to Kv1.3, Jurkat cells endogenously expressing Kv1.3 were used. For binding to hERG, HEK cells stably expressing hERG were used.
Cell culture was performed using standard cell culture techniques. In brief, cells were grown on 10 cm culture dishes or T75 culture flasks in DMEM-based media. With a confluence of about 60-80%, cells were split every 2-3 days. For recordings on the Patchliner (Nanion), Jurkat cells were resuspended and then spinned in a centrifuge. Before spinning, HEK cells were treated with Trypsin, to detach them from the dish surface. After spinning, cells were resuspended in external recording buffer to a density of approximately 1-2 million cells per ml.
Internal recording solution: 50 mM KCl • 10 mM NaCl • 60 mM KF • 20 mM EGTA • 10 mM HEPES/KOH, pH 7.2, (Osm: ˜290 mOsm)
5 mM Mg-ATP and 0.3 mM Na-GTP were added fresh to the internal solution and pH adjusted to 7.2.
External recording buffer: 140 mM NaCl • 4 mM KCl • 1 mM MgCl2 • 2 mM CaCl2 • 5 mM D-Glucose monohydrate • 10 mM HEPES/NaOH pH 7.4, (Osm: ˜298 mOsm) Compounds
Electrophysiological recordings were performed with a Patchliner, recording up to 8 channels, simultaneously. The Patchliner is an automated patch clamp system utilizing borosilicate glass chips (NPC-16) for planar patch clamp, and operating via the PatchControlHT software. NPC-16 chips with a resistance of 3-5 MΩ for Jurkat cells and 2-3 MΩ for HEK cells were used for recordings. During recordings, cells were kept in a “cell hotel” where they were periodically pipetted up and down to maintain viability. […]
For pharmacology on hERG, peak amplitude at the 2nd −40 mV step (tail current) was calculated using online analysis functions in PatchMaster. The leak (calculated from the 1st step to −40 mV) was subtracted from this peak to calculate the true peak and these could be plotted as a function of time.
Values were exported to Excel to calculate concentration response curves in Igor. […] A Hill equation was fitted to estimate the IC50 for each compound and IC50 was calculated relative to maximum block. […]

T4 sequence (Q12809 whole entry): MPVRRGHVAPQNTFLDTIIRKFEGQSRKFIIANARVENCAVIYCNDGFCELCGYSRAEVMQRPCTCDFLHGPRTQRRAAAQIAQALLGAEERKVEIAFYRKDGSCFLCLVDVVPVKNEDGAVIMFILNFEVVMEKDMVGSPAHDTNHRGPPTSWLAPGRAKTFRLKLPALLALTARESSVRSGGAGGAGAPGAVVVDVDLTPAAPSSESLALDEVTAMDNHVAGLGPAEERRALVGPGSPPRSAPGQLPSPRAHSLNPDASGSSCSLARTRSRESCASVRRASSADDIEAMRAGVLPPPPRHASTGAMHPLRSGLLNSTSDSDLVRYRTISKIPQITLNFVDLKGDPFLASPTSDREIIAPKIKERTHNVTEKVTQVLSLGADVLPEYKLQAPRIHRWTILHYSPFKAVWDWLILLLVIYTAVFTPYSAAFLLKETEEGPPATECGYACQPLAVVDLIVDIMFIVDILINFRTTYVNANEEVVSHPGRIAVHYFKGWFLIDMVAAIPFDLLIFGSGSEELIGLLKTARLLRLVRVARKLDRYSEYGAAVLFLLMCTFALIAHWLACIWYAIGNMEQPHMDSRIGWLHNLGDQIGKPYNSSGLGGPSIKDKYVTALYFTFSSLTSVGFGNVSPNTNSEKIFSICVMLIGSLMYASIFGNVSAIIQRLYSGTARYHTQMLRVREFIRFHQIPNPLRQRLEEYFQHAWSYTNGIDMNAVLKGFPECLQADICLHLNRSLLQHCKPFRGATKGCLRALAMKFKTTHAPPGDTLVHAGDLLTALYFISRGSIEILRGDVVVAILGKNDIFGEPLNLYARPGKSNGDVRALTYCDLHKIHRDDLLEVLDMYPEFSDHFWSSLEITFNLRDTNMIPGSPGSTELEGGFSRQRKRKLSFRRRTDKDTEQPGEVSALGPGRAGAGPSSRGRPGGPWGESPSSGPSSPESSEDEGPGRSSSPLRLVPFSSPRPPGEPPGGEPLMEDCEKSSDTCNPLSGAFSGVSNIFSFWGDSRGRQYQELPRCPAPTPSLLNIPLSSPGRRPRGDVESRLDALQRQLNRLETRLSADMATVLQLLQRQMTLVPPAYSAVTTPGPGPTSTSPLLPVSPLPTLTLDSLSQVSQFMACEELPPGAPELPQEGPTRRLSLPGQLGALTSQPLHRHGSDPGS
T1 sequence (P22001 whole entry): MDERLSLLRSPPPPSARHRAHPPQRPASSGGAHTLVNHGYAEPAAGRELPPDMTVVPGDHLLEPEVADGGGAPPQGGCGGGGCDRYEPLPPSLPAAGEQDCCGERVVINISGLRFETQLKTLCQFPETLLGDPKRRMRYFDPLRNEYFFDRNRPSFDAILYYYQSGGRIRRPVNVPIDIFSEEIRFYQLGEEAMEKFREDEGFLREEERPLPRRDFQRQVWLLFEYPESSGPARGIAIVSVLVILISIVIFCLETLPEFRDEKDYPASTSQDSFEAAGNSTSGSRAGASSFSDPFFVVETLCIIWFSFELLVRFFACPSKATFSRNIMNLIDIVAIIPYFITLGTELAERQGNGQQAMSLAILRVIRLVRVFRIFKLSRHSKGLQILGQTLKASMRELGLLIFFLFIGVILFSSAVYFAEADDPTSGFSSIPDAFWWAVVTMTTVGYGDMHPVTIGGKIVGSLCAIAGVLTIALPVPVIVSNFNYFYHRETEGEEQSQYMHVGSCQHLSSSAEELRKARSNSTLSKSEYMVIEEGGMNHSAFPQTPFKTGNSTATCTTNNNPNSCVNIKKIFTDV
T3 sequence (P22001 whole entry): as above
T2 sequence (Q09470 whole entry): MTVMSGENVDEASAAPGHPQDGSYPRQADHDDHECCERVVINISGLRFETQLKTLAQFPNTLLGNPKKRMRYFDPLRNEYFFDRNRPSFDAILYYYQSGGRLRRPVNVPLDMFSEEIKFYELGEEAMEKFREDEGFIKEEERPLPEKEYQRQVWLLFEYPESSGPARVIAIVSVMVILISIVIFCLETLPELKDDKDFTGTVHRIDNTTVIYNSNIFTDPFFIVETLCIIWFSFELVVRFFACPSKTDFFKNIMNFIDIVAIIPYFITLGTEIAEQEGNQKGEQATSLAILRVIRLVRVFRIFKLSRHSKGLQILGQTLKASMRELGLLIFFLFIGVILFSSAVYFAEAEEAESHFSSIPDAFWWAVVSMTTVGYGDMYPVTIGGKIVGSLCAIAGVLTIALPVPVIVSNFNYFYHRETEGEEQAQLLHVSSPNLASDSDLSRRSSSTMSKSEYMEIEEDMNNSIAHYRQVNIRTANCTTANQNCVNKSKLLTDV

CC[C@H](C)[C@H](NC(=O)[C@@H](N)[C@@H](C)O)C(=O)N[C@H](C(=O)N[C@@H](CC(N)=O)C(=O)N[C@H](C(=O)N[C@@H](CCCCN)C(=O)N[C@H]1CSSC[C@@H]2NC(=O)[C@H](CCCCN)NC(=O)CNC(=O)[C@H](Cc3ccc(O)cc3)NC(=O)[C@@H]3CCCN3C(=O)[C@@H]3CSSC[C@@H](C(=O)O)NC(=O)[C@H](CCCNC(=N)N)NC(=O)[C@H](CC(N)=O)NC(=O)[C@@H]4CSSC[C@H](NC(=O)[C@@H]5CCCN5C(=O)[C@@H]5CCCN5C(=O)[C@H](CC(C)C)NC(=O)[C@H](CSSC[C@H](NC(=O)[C@H](CCCCN)NC(=O)[C@H](CCCNC(=N)N)NC(=O)[C@H](CC(N)=O)NC(=O)[C@H](CCSC)NC2=O)C(=O)N[C@@H](CCCCN)C(=O)N4)NC(=O)[C@H](CCC(N)=O)NC(=O)[C@H](CCCCN)NC(=O)[C@@H]2CCCN2C(=O)[C@H](CO)NC(=O)[C@H]([C@@H](C)O)NC1=O)C(=O)N[C@@H](CCCCN)C(=O)N[C@@H](C)C(=O)N[C@@H](CCC(N)=O)C(=O)N[C@@H]([C@@H](C)O)C(=O)NCC(=O)N3)C(C)C)[C@@H](C)CC [Compound 7]
significant change in activity ([1]; 24 h, 37° C. and RT): could not be detected | activity after incubation in plasma ([1]; 48 h at RT): remained unchanged | activity after incubation in plasma ([1]; 14 days at 37° C.): no activity was detected | activity after incubation in plasma ([1]; 14 days at RT): unchanged activity | pIC50 ([1]; read-out: IC50 on Kv1.3 after incubation in plasma, 48 h at 37° C.): 7.24 | pIC50 ([1]; read-out: IC50 on Kv1.3 in plasma, time point 0 h): 7.82 | block of Kv1.1 (Kv1.1): about 22% | selectivity for Kv1.3 vs. Kv1.1 compared to HsTx 1 [2]: higher selectivity | pIC50 ([2]; read-out: IC50 on Kv1.3 before the start of the plasma stability experiment, incompletely folded peptide, n=5 cells, Sf21): 7.34 | Normalized Block of hERG current (hERG; 5 μM): 0.04 | Normalized Block of hERG current (hERG; 10 μM): 0.07 | effect on hERG current (hERG; hERG expressing HEK cells): only low effects
